Patent US9221814B2, “Heterocyclic guanidine F1F0-atpase inhibitors and therapeutic uses thereof” (Lycera Corporation, priority 2012, dated 2015)
pEC50, pIC50: −log10 of the molar value. Read-outs that look alike come from different tables or passages of the source.

What was measured:
F1F0-ATPase = target: T1, F1F0-ATPase (Bos taurus, UniProt P13621); test: Inhibition of F1F0-ATPase activity in synthesizing ATP (ATP synthesis inhibition); type: biochemical; conditions: detection limit IC50=16 μM, read-out: ATP Syn IC50
T1 construct: from tissue
Experimental: (§1) Exemplary compounds described in above Examples were tested for activity against F1F0-ATPase by measuring the ability of the compounds to inhibit ATP synthesis. In addition, the compounds were assessed for cytotoxicity in Ramos cells. Inhibition of F1F0-ATPase activity in synthesizing ATP and cytotoxicity in Ramos cells were measured according to the procedures described in K. M. Johnson et al. Chemistry & Biology 2005, 12, 485-496.

Ramos cells = test: Cytotoxicity in Ramos cells; type: cell-based; conditions: detection limit EC50=16 μM, read-out: Ramos Cell EC50
Experimental: as §1

Structure (SMILES) | pIC50 (F1F0-ATPase) | pEC50 (Ramos cells) | pEC50 (Ramos cells; Homo sapiens)
Cn1cc(C(=O)/N=C(/NCC(C)(C)C)Nc2n[nH]c3cncc(F)c23)c(C(F)(F)F)n1 [Compound A-144] | 4.80 to 5.30 | < 4.80 | 
Cc1nnsc1C(=O)/N=C(/NCC(C)C)Nc1cc(-c2ccc(F)cc2)[nH]n1 [Compound A-120] | < 4.80 | < 4.80 | 
CC(C)N/C(=N/C(=O)c1cn(C)nc1C(F)(F)F)Nc1cc(-c2ccc(O)cc2F)n[nH]1 [Compound A-149] | < 4.80 | < 4.80 | 
COCC(C)NC(=NC(=O)c1cn(C)nc1C(F)(F)F)Nc1n[nH]c2cc(Cl)ccc12 (stereo not drawn) [Compound A-202] | > 5.30 | > 5.30 | 
COCC(C)NC(=NC(=O)c1cn(C)nc1C(F)(F)F)Nc1n[nH]c2cncc(F)c12 (stereo not drawn) [Compound A-142] | < 4.80 |  | 4.80 to 5.30
Cn1cc(C(=O)N=C(Nc2ccc(F)cc2)Nc2cc(-c3ccc(O)cc3F)n[nH]2)c(C(F)(F)F)n1 [Compound A-150] | > 5.30 |  | > 5.30
Cc1oncc1C(=O)/N=C(\Nc1cc(-c2ccc(F)cc2)[nH]n1)NC1CCC1 [Compound A-125] | < 4.80 | < 4.80 | 
Cc1oncc1C(=O)/N=C(/NCCCOC(C)C)Nc1cc(-c2cc(F)cc(Cl)c2)[nH]n1 [Compound A-103] | < 4.80 | < 4.80 | 
Cn1cc(C(=O)/N=C(/Nc2cc(-c3ccc(O)cc3F)n[nH]2)Nc2ccccc2Cl)c(C(F)(F)F)n1 [Compound A-3] | 4.80 to 5.30 | > 5.30 | 
CCOC(=O)NC1CCC(N/C(=N\C(=O)c2cc(C)oc2C(F)(F)F)Nc2ccccc2OC)CC1 (stereo not drawn) [Compound A-213] | > 5.30 |  | < 4.80
CC(C)CN/C(=N/C(=O)c1cn(C)nc1C(F)(F)F)Nc1n[nH]c2cc(F)ccc12 [Compound A-205] | < 4.80 | < 4.80 | 
CC(C)N/C(=N/C(=O)c1cn(C)nc1C(F)(F)F)Nc1cc(-c2ccc(O)c(F)c2)n[nH]1 [Compound A-152] | 4.80 to 5.30 | 4.80 to 5.30 | 
Cn1nc(C(C)(C)C)cc1C(=O)/N=C(\Nc1cc(-c2ccc(F)cc2)n[nH]1)NC1CCCC1 [Compound A-51] | > 5.30 | > 5.30 | 
CC(C)(C)CN/C(=N/C(=O)c1ccc(Cl)s1)Nc1cc(C(F)(F)F)n[nH]1 [Compound A-208] | > 5.30 | > 5.30 | 
Cc1nc(C(=O)/N=C(\Nc2cc(-c3ccc(F)cc3)n[nH]2)NC(C)(C)C)c(C)o1 [Compound A-191] | < 4.80 | < 4.80 | 
Cc1oncc1C(=O)N=C(NCC(C)C)Nc1cc(-c2cc(F)cc(Cl)c2)n[nH]1 [Compound A-99] | > 5.30 |  | 4.80 to 5.30
Cn1cc(C(=O)/N=C(/NCC(C)(C)C)Nc2cc(-c3ccc(O)c(F)c3)[nH]n2)c(C(F)(F)F)n1 [Compound A-135] | 4.80 to 5.30 | > 5.30 | 
CCC(C)N/C(=N/C(=O)c1cc(C)oc1C(F)(F)F)Nc1cc(C)n[nH]1 (stereo not drawn) [Compound A-111] | 4.80 to 5.30 | < 4.80 | 
COc1ccc(-c2cc(N/C(=N\C(=O)c3cn(C)nc3C(F)(F)F)Nc3ccc(C(C)(C)C)cc3)[nH]n2)cc1F [Compound A-148] | 4.80 to 5.30 | 4.80 to 5.30 | 
COCC(C)NC(=NC(=O)c1cn(C)nc1C(F)(F)F)Nc1n[nH]c2cc(F)ccc12 (stereo not drawn) [Compound A-207] | < 4.80 | < 4.80 | 
Cn1cc(C(=O)/N=C(\Nc2cc(-c3ccc(O)c(F)c3)n[nH]2)Nc2ccc(F)c(O)c2F)c(C(F)(F)F)n1 [Compound 5, N-(((2,4-Difluoro-3-hydroxyphenyl)amino)((3-(3-fluoro-4-hydroxyphenyl)-1H-pyrazol-5-yl)amino)methylene)-1-methyl-3-(trifluoromethyl)-1H-pyrazole-4-carboxamide] | 4.80 to 5.30 |  | 4.80 to 5.30
Cc1cc(C(=O)/N=C(\Nc2ccc(C(F)(F)F)nc2)Nc2cc(F)cc(Cl)c2)on1 [Compound A-231] | > 5.30 |  | > 5.30
Cn1cc(C(=O)/N=C(/Nc2cccc(F)c2)Nc2cc(-c3ccc(O)c(F)c3)n[nH]2)c(C(F)(F)F)n1 [Compound A-166] | > 5.30 | > 5.30 | 
Cc1cc(C(=O)/N=C(/NCC(C)C)Nc2cc(-c3ccc(Cl)cc3)n[nH]2)n(C)n1 [Compound A-66] | > 5.30 | > 5.30 | 
Cc1cc(C(=O)/N=C(\Nc2ccc(C(F)(F)F)nc2)Nc2cccc(Cl)c2)on1 [Compound A-232] | > 5.30 |  | > 5.30

More lines, main results first:

pIC50 (F1F0-ATPase) | Structure (SMILES) | pEC50 (Ramos cells) | pEC50 (Ramos cells; Homo sapiens)
> 5.30 | Cn1cc(C(=O)/N=C(\Nc2cc(-c3ccc(O)cc3F)[nH]n2)NC(C)(C)C)c(C(F)(F)F)n1 [Compound A-136] | > 5.30 | 
> 5.30 | CC(C)n1ccc(C(=O)/N=C(\Nc2cc(-c3ccc(F)cc3)n[nH]2)NC(C)(C)C)n1 [Compound A-56] | 4.80 to 5.30 | 
< 4.80 | COC[C@H](C)N/C(=N/C(=O)c1cc(C)oc1C(F)(F)F)Nc1cc(C)n[nH]1 [Compound A-113] | < 4.80 | 
> 5.30 | Cc1cc(C(=O)/N=C(/NCC(C)C)Nc2cc(-c3ccc(F)cc3)n[nH]2)c(C)o1 [Compound A-192] | 4.80 to 5.30 | 
> 5.30 | COc1ccc(-c2cc(N/C(=N\C(=O)c3cn(C)nc3C(F)(F)F)NCC(C)C)n[nH]2)cc1F [Compound A-133] | > 5.30 | 
4.80 to 5.30 | Cn1cc(C(=O)/N=C(\Nc2cc(-c3ccc(O)c(F)c3)[nH]n2)NC2CCCC2)c(C(F)(F)F)n1 [Compound A-134] | < 4.80 | 
> 5.30 | Cc1cc(C(=O)/N=C(/NCC(C)C)Nc2cc(-c3ccc(F)cc3)n[nH]2)c(C(F)(F)F)o1 [Compound A-203] | > 5.30 | 
> 5.30 | Cc1ccc(-c2cc(N/C(=N\C(=O)c3cnoc3C)NC(C)(C)C)[nH]n2)cc1F [Compound A-93] | > 5.30 | 
4.80 to 5.30 | CCC(C)N/C(=N/C(=O)c1nc(C)oc1C)Nc1cc(-c2ccc(F)cc2)n[nH]1 (stereo not drawn) [Compound A-196] | > 5.30 | 
> 5.30 | Cc1c(Cl)cccc1N/C(=N/C(=O)c1cn(C)nc1C(F)(F)F)Nc1cc(-c2ccc(O)c(F)c2)n[nH]1 [Compound A-184] | > 5.30 | 
4.80 to 5.30 | COc1ccc(F)c(-c2cc(N/C(=N\C(=O)c3cn(C)nc3C(F)(F)F)NC(C)(C)C)n[nH]2)c1 [Compound A-145] | 4.80 to 5.30 | 
> 5.30 | Cn1cc(C(=O)/N=C(/Nc2cc(F)cc(Cl)c2)Nc2cccc(O)n2)c(C(F)(F)F)n1 [Compound A-234] |  | > 5.30
4.80 to 5.30 | COC[C@H](C)N/C(=N/C(=O)c1cn(C)nc1C(F)(F)F)Nc1cc(-c2ccc(OC)c(F)c2)n[nH]1 [Compound A-132] | 4.80 to 5.30 | 
> 5.30 | Cc1cc(Cl)ccc1N/C(=N/C(=O)c1cn(C)nc1C(F)(F)F)Nc1cc(-c2ccc(O)c(F)c2)n[nH]1 [Compound A-187] | > 5.30 | 
> 5.30 | Cc1ccccc1N/C(=N/C(=O)c1cn(C)nc1C(F)(F)F)Nc1cc(-c2ccc(O)c(F)c2)n[nH]1 [Compound A-185] | > 5.30 | 
4.80 to 5.30 | Cc1oncc1C(=O)/N=C(\Nc1cc(-c2cc(F)cc(F)c2)n[nH]1)NC(C)C [Compound A-77] | < 4.80 | 

pIC50 (F1F0-ATPase) | Structure (SMILES) | pEC50 (Ramos cells) | pEC50 (Ramos cells; Homo sapiens)
4.80 to 5.30 | Cn1cc(C(=O)/N=C(\Nc2n[nH]c3cncc(F)c23)NC(C)(C)C)c(C(F)(F)F)n1 [Compound A-141] | 4.80 to 5.30 | 
< 4.80 | CCOC(=O)NC1CCC(N/C(=N/C(=O)c2cn(C)nc2C(F)(F)F)NCc2ccc(Cl)c(F)c2)CC1 (stereo not drawn) [Compound A-218] |  | 4.80 to 5.30
< 4.80 | CCOCCCN/C(=N\C(=O)c1cnoc1C)Nc1cc(-c2cc(F)cc(F)c2)n[nH]1 [Compound A-1] | < 4.80 | 
> 5.30 | CC(C)CN/C(=N\C(=O)c1cn(C)nc1C(F)(F)F)Nc1cc(-c2cc(F)cc(F)c2)n[nH]1 [Compound A-26] | > 5.30 | 
4.80 to 5.30 | Cc1nc(C(=O)/N=C(/NCC(C)C)Nc2cc(-c3ccc(F)cc3)n[nH]2)c(C)o1 [Compound A-193] | 4.80 to 5.30 | 
< 4.80 | Cc1oncc1C(=O)/N=C(/NCC(C)C)Nc1cc(-c2cc(F)cc(F)c2)n[nH]1 [Compound A-79] | < 4.80 | 
> 5.30 | CCOC(=O)NC1CCC(N/C(=N\C(=O)c2cc(C)oc2C(F)(F)F)Nc2ccccc2C)CC1 (stereo not drawn) [Compound A-216] |  | 4.80 to 5.30
> 5.30 | COc1ccc(-c2cc(NC(=NC(=O)c3cn(C)nc3C(F)(F)F)NCC(C)(C)C)[nH]n2)cc1F [Compound A-130] |  | > 5.30
> 5.30 | Cc1cc(C(=O)/N=C(/NCc2ccc(F)cc2Cl)Nc2cc(-c3ccc(F)cc3)n[nH]2)n(C)n1 [Compound A-86] | 4.80 to 5.30 | 
> 5.30 | Cc1cc(C(=O)/N=C(/Nc2cc(F)cc(Cl)c2)Nc2c(C)c(C(F)(F)F)nn2CCO)on1 [Compound A-226] |  | 4.80 to 5.30
> 5.30 | O=C(N=C(Nc1cc(F)cc(Cl)c1)Nc1cc(C(F)(F)F)n[nH]1)c1nccs1 [Compound A-34] |  | > 5.30
< 4.80 | COC[C@H](C)N/C(=N/C(=O)c1cn(C)nc1C(F)(F)F)Nc1cc(-c2ccc(O)cc2F)n[nH]1 [Compound A-140] | < 4.80 | 
> 5.30 | CCOCCCN/C(=N\C(=O)c1cn(C)nc1C(F)(F)F)Nc1cc(-c2cc(F)cc(F)c2)n[nH]1 [Compound A-29] | > 5.30 | 
> 5.30 | COc1ccc(-c2cc(N/C(=N\C(=O)c3cn(C)nc3C(F)(F)F)Nc3cc(F)cc(Cl)c3)n[nH]2)cc1F [Compound A-131] | < 4.80 | 
4.80 to 5.30 | Cn1cc(C(=O)/N=C(/Nc2cc(F)cc(Cl)c2)Nc2cc(-c3cc(O)ccc3F)n[nH]2)c(C(F)(F)F)n1 [Compound A-180] | > 5.30 | 
> 5.30 | Cc1oncc1C(=O)/N=C(\Nc1cc(-c2cc(F)cc(Cl)c2)n[nH]1)NC(C)(C)C [Compound A-96] | > 5.30 | 
